Measured values as given in patent US20230203485A1, “METHODS FOR MODULATING MHC-I EXPRESSION AND IMMUNOTHERAPY USES THEREOF” (Dana-Farber Cancer Institute, Inc., priority 2020, published 2023).

How the values were obtained:
[1] = test system: MKL-1 control or p53 KO cells; assay: Cell cycle analysis (EdU/DAPI flow cytometry); type: cell-based, human; settings: MKL-1 TP53-WT and TP53-KO, 100 nM, three days
Description: 1 million MKL-1 control or p53 KO cells were plated and treated with DMSO, XL177A (100 nM) or XL177B (100 nM) for three days. During the last hour of the three-day treatment, the cells were pulsed with 10 μM EdU nucleotide. The cells were collected by centrifugation, treated with Accutase™ (Stem Cell Technologies) to break apart clumps, washed with PBS and fixed using 4% Formaldehyde solution in PBS at Room temperature for 15 mins. Cells were washed with 1% BSA in PBS and resuspended in 70% ice cold ethanol and incubated at −20° C. overnight for additional fixing and permeabilization. The cells were stored in 70% ethanol at −20° C. until the day the data was acquired. On the day of data acquisition, the cells were collected by centrifugation and washed twice with PBS. The incorporated EdU in the cells were labeled with a CLICK reaction cocktail (1 mM CuSO4, 100 μM THPTA, 100 mM sodium ascorbate, and 2.2 μM Alexa 647 azide in PBS) at room temperature with rocking for 30 minutes. The samples were then washed with 1% BSA in PBS once followed by two washes with PBS and incubated with a 1 μg/ml DAPI, 100 ng/ml RNase A solution for one hour at Room temperature to stain the DNA. The samples were then passed through strainer tubes and analyzed using a BD Fortessa analyzer. The flow cytometry data was analyzed using the FlowJo Software. […]

surface HLA-I = assay: USP7 inhibitor treatment of MKL-1 p53-WT control and p53-KO lines, surface HLA I by flow cytometry; type: cell-based, human
Description: For MCC-301 USP7 inhibitor experiments, two and a half million MCC cells were plated in a T25 flask and incubated with the USP7 inhibitor XL177A and control enantiomer XL177B at 10 μM, 1 μM, 100 nM, and 10 nM. Cells were incubated for 3 to 4 days. Post incubation, one million cells were treated with Versene (Gibco) to dissociate cell clusters. Surface Fc receptors were blocked with 5 μL Human TruStain FcX (Biolegend #422302). Surface HLA-I was stained with 5 μL of Pan HLA-Class I antibody (Clone W6/32, Santa Cruz Biotechnologies) for 30 minutes in dark at 4° C. Cells were washed with PBS and fixed with 4% paraformaldehyde fixation buffer (Biolegend). Cells were analyzed on a BD LSRFortessa. MCC-301 data are representative of 4 independent experiments. To perform statistical analysis, for each cell line, one-way ANOVA was first performed on the MFIs of the DMSO group and all experimental groups. Then, individual Welch t-tests were performed for each concentration, comparing the fold-changes of MFI (inhibitor)/mean MFI (DMSO control) between XL177A and XL177B.
For MKL-1 USP7 inhibitor experiments, p53-WT control lines (WT, scrambled, AAVS1) and three p53-KO lines were treated with USP7 inhibitors and assessed by flow cytometry for surface HLA I as described above for MCC-301.

surface HLA class I = assay: USP7 inhibitor treatment of MCC lines, surface HLA-I by flow cytometry; type: cell-based, human; settings: 3 days
[2] = test system: HLA-I-bound peptidomes of MCC-301 cells; assay: HLA-I-bound immunopeptidome of USP7 inhibitor treated MCC-301 cells (TMT LC-MS/MS); type: cell-based, human
Description: Up to 40 million or 0.2 g of MCC cells were immunoprecipitated. Briefly, MCC cells were harvested and lysed in ice-cold lysis buffer containing […] (pH 8.0), 1 mM EDTA (pH 8.0), 0.1M sodium chloride, Triton X-100, 0.06M octyl β-d-glucopyranoside, 100 U/mL DNAse I, 1 mM phenylmethanesulfonyl fluoride (all from Sigma Aldrich), and protease inhibitor cocktail (Roche Diagnostics). Cell lysate was centrifuged at 12,700 rpm at 4° C. for 22 min. Lysate supernatant was coupled with Gammabind Plus sepharose beads (GE Healthcare) and incubated with 10 μg of HLA-I antibody (Clone W6/32, Santa Cruz Biotechnologies) at 4° C. under rotary agitation for 3 h. After incubation, the lysate-bead-antibody mixture was briefly centrifuged and the supernatant was discarded. Beads were washed with lysis buffer, consisting of wash buffer containing 40 mM Tris (pH 8.0), 1 mM EDTA (pH 8.0), 0.1M sodium chloride, 0.06M octyl β-d-glucopyranoside, and 20 mM Tris buffer, without protease inhibitors. Gel loading tips (Fisherbrand) were used to remove as much fluid from beads as possible. Peptides of up to three immunoprecipitations were combined, acid eluted, and analyzed using LC/MS-MS. Briefly, peptides were resuspended in 3% acetonitrile with 5% formic acid and loaded onto an analytical column (20-30 cm with 1.9 μm C18 Reprosil beads, Dr. Maisch HPLC GmbH); packed in-house). Peptides were eluted in a 6-30% gradient (EasyLC 1000 or 1200, Thermo Fisher Scientific) and analyzed on a QExactive Plus, Fusion Lumos, or Orbitrap Exploris 480 (Thermo Fisher Scientific). For Lumos measurements, peptides were also subjected to fragmentation if they were singly charged. For Orbitrap Exploris measurements (2 immunoprecipitations pooled, +/−IFN-γ, FIG. 3) and detection of the large T antigen peptide (3 immunoprecipitations of the MCC-367 cell line treated with IFN-γ) peptides were further fractionated using stage tip basic reverse phase separation with 2 punches of SDB-XC material (Empore 3M) and increasing concentrations of acetonitrile (5%, 10% and 30% in 0.1% NH4OH, pH 10). Fractions were analyzed on a Fusion Lumos or Orbitrap Exploris 480 equipped with a FAIMSpro interface. […]
Mass spectra were interpreted using Spectrum Mill software package v7.1 pre-Release (Broad Institute, Cambridge, Mass.). […] MS/MS spectra were searched against a protein sequence database that contained 90,904 entries, including all UCSC Genome Browser genes with hg19 annotation of the genome and its protein coding transcripts (52,788 entries), common human virus sequences (30,181 entries), recurrently mutated proteins observed in tumors from 26 tissues (4,595 entries), 264 common laboratory contaminants as well as protein sequences containing somatic mutations detected in MCC cell lines (3,076 entries). […]

USP7 = USP7 (Homo sapiens, UniProt Q93009); settings: enantiomer control vs XL177A; cited from earlier work
autologous T cells = assay: IFN-γ ELISpot with patient MCC-367 PBMCs; type: cell-based, human; settings: 10 μg/ml peptide
Description: Matching patient peripheral blood mononuclear cells (PBMCs) from patient MCC-367 were thawed, and 10^7 cells per well were seeded in 24 well plates overnight. Cells were stimulated with 10 μg/ml of the LT antigen peptide […] (identified in the MCC-367 HLA peptidome, FIG. 3F) in complete DMEM supplemented with 10% Human serum and 20 ng/ml IL-7 (PeproTech). After 3 days of stimulation, cells were supplemented with 20 units/mL IL-2 (PeproTech). After 10 days of stimulation, cells were cytokine deprived overnight. 50,000 cells per well were stimulated in an IFN-γ ELISpot assay with 10 μg/ml of the […] peptide. DMSO and an HIV-GAG peptide were used as negative controls. CEF (Mabtech) and PHA (Sigma Aldrich) were used as positive controls (not shown). ELISpot and T cell culture methods were described in detail previously.

[3] = 100 nM, three lines (MCC-277, -290, -301)
[4] = 100 nM, two MCPyV+ lines (MCC-301 and -277)

Chain of USP7 (Q93009 whole entry): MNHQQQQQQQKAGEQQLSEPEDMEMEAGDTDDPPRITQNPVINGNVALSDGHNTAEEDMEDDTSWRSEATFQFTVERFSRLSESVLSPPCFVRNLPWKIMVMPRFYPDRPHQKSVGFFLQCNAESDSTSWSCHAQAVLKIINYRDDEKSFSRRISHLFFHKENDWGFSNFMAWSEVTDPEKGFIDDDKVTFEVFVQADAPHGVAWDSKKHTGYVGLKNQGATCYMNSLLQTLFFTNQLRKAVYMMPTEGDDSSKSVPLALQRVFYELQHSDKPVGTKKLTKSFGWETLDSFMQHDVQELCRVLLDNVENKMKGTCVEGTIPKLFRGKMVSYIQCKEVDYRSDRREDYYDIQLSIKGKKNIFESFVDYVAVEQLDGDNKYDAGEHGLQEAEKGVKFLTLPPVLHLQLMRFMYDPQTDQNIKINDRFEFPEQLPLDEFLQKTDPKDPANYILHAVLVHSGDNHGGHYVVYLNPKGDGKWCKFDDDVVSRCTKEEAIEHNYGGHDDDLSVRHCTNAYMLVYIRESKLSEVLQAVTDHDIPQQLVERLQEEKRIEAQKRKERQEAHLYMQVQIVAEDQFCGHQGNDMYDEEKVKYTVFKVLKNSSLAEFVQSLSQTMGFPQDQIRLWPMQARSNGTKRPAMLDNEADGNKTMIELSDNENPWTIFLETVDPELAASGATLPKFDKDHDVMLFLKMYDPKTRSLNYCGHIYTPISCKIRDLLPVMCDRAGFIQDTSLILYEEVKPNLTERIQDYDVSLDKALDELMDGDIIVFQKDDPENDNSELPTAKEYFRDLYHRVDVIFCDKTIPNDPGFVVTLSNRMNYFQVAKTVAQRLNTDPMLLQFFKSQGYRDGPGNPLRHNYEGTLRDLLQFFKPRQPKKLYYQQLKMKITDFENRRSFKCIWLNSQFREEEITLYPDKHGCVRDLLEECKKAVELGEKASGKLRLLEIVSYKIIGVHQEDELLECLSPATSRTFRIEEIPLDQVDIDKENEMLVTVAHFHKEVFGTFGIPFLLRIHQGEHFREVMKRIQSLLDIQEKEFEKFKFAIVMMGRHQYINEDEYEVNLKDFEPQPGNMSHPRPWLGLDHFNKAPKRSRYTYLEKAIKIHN

## CN1CCN(CCC(=O)Nc2ccc3c(=O)n(CC4(O)CCN(C(=O)[C@@H](CCCNC(=O)c5ccc6c(Cl)c7c(nc6c5)CCCC7)Cc5ccccc5)CC4)cnc3c2)CC1 [XL177A]
[1]
  cell cycle shift: slight cell cycle shifts from S to G1 phase
Surface HLA-I; MKL-1 TP53-KO lines
  surface HLA-I relative to XL177B and DMSO: increased
Surface HLA-I; MKL-1 TP53-WT lines
  surface HLA-I relative to XL177B and DMSO: increased
Surface HLA class I; [3]
  mean fold increase in expression of surface HLA class I relative to DMSO: 1.89 fold
  range of fold increase in expression of surface HLA class I relative to DMSO: 1.60-2.27 fold
Surface HLA class I; [4]
  mean fold increase in expression of surface HLA-I relative to DMSO: 2.0 fold
  range of fold increase in expression of surface HLA-I relative to DMSO: 1.78-2.27 fold
Surface HLA class I; MCC-290 (MCPyV−)
  increase in HLA-I levels in MCC-290: more modest increase
Surface HLA class I; MCC-320 (MCPyV−)
  increase in HLA I expression in MCC-320: did not exhibit a statistically significant increase and not
[2]
  abundance of displayed HLA-I peptides compared to XL177B and untreated cells: higher abundances of displayed peptides
  frequency of peptides displayed on each respective HLA-I gene (HLA-A, -B, -C): did not affect
[2]; out of 282 peptides
  percent of significantly differing peptides more abundant compared to untreated cells: 95.7%
[2]; out of 282 peptides whose abundance significantly differed (P<0.05)
  number of peptides more abundant compared to untreated cells: 270 peptides

## CN1CCN(CCC(=O)Nc2ccc3c(=O)n(CC4(O)CCN(C(=O)[C@H](CCCNC(=O)c5ccc6c(Cl)c7c(nc6c5)CCCC7)Cc5ccccc5)CC4)cnc3c2)CC1 [XL177B]
USP7
  potency relative to XL177A (fold less potent): 500 fold

## TSDKAIELY [peptide derived from the OBD domain of MCPyV LT, detected in the MCC-367 HLA peptidome]
Autologous T cells
  reactivity of autologous T cells by ELISpot: confirmed
